In PubChem BioAssay (NCI) one finds GI50 and TGI data, which are given here for eleven compounds.

Each structure is given as a SMILES string. Values joined by “and” are separate entries in the source; they are usually repeats but may differ in a detail not shown here. Equal entries are not always repeated.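 Step 1: Grow cells in 96-well plates. Step 2: Expose to compound for 48 hours at 5 concentrations. Step 3: Interpolate endpoints linearly; if unreached, use highest concentration. GI50 = concentration required for 50% inhibition of growth. TGI: total growth inhibition.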

Among the test systems are HCC-2998 colon; NCI-H23 lung; SR leukemia; OVCAR-3 ovarian; CCRF-CEM leukemia; U251 CNS; CAKI-1 renal; SN12C renal; HOP-62 NSCLC; NCI-H226 lung.
What all share (assay): NCI tumour cell line growth inhibition, 48 h

Turning to `CC(O)c1cccc(NCc2c3ccccc3c(=O)n3c2oc2ccccc23)c1` (stereo not given), the GI50 was 11.3 µM in the assay on HCC-2998 colon; 9.41 µM in the assay on NCI-H23 lung; 3.39 µM in the assay with SR leukemia; 9.25 µM in the assay on OVCAR-3 ovarian; 3.34 µM in the assay on CCRF-CEM leukemia; 9.92 µM in the assay on U251 CNS. Besides, the values for the GI50 in the assay with CAKI-1 renal, in the assay with SN12C renal and in the assay on HOP-62 NSCLC were 7.29 µM, 15.5 µM and 3.01 µM, respectively. Also, the TGI with HCC-2998 colon was 57.2 µM; in the assay with NCI-H23 lung, 26.9 µM; with SR leukemia, 12.1 µM; in the assay on OVCAR-3 ovarian, 85.2 µM; in the assay on CCRF-CEM leukemia, over 100 µM; in the assay on U251 CNS, 21.5 µM. The TGI with CAKI-1 renal is over 100 µM; in the assay with SN12C renal it was over 100 µM; in the assay with HOP-62 NSCLC, 13.6 µM.

For the compound `CCOC(=O)NC(=O)c1cn(CC(=O)NCC(=O)NCC(=O)NCCCN2CCN(CCCNC(=O)CNC(=O)CNC(=O)Cn3cc(C(=O)NC(=O)OCC)c(=O)[nH]c3=O)CC2)c(=O)[nH]c1=O`, the TGI in the assay with HCC-2998 colon, in the assay on NCI-H23 lung, in the assay with SR leukemia, in the assay with OVCAR-3 ovarian, in the assay on CCRF-CEM leukemia and in the assay with U251 CNS was over 100 µM each time. The TGI with CAKI-1 renal, in the assay on SN12C renal and in the assay on HOP-62 NSCLC was over 100 µM each time.

`Cc1c[nH]c2c(O)cc3c(c12)[C@H](CCl)CN3C(=O)c1cc2cc(NC(=O)Nc3ccc4[nH]c(C(=O)N5C[C@@H](CCl)c6c5cc(O)c5[nH]cc(C)c65)cc4c3)ccc2[nH]1`: the GI50 with SR leukemia was 0.000244 µM; in the assay with CAKI-1 renal it was 0.000268 µM. In addition, the TGI in the assay with OVCAR-3 ovarian is 43.2 µM; with NCI-H226 lung, 15.9 µM; in the assay on HOP-62 NSCLC, 18.9 µM and 8.9e-07 µg/mL and 0.000888 µg/mL.

As to `CCC1(CC)C(=O)OC(=O)C1(CC)CC`, the TGI with HCC-2998 colon, in the assay with NCI-H23 lung, in the assay on SR leukemia, in the assay with OVCAR-3 ovarian, with CCRF-CEM leukemia and with U251 CNS was over 100 µM each time. For the same compound, the TGI in the assay on CAKI-1 renal and with HOP-62 NSCLC was over 100 µM throughout.

Consider `CCOC(=O)C(N)C[S][Sn]([CH3])([CH3])[Cl]` (stereo not given), for which the GI50 is over 100 µM with HCC-2998 colon; over 100 µM in the assay with NCI-H23 lung; over 100 µM with OVCAR-3 ovarian; over 55.2 µM with CCRF-CEM leukemia; over 100 µM in the assay with U251 CNS; over 100 µM in the assay on NCI-H226 lung. Also, the GI50 with CAKI-1 renal, in the assay on SN12C renal and in the assay with HOP-62 NSCLC was over 100 µM in each case. Further, the TGI in the assay on HCC-2998 colon, in the assay with NCI-H23 lung, in the assay on OVCAR-3 ovarian, in the assay on CCRF-CEM leukemia, with U251 CNS and in the assay with NCI-H226 lung was over 100 µM each time. Also, the TGI with CAKI-1 renal, in the assay on SN12C renal and with HOP-62 NSCLC was over 100 µM throughout.

For `Cn1ccnc1CC(C)(O)c1ccccc1` (stereo not given), the TGI in the assay with HCC-2998 colon, with NCI-H23 lung, with SR leukemia, in the assay with OVCAR-3 ovarian, with U251 CNS and in the assay on NCI-H226 lung was over 100 µM each time. Also, the TGI with CAKI-1 renal, in the assay on SN12C renal and with HOP-62 NSCLC was over 100 µM in each case.

Consider `CC(=O)N[C@H]1C=C[C@@H]2/C=C(C)/C=C/[C@@H](C)[C@H]([C@H](C)[C@H](O)[C@@H](C)NC(C)=O)OC(=O)/C=C/C=C(C)\C=C\[C@]2(C)C1`, for which the GI50 with HCC-2998 colon is 5.04 µM; with SR leukemia it was 0.0184 µM and 0.0045 µM; in the assay on OVCAR-3 ovarian, 0.0045 µM; in the assay with CCRF-CEM leukemia, 6.32 µM; in the assay with U251 CNS, 0.00747 µM and 0.0045 µM; with NCI-H226 lung it was 0.0157 µM and 0.0045 µM. In addition, in the assay with SN12C renal, the GI50 is 0.0212 µM and 0.00535 µM. The TGI in the assay with HCC-2998 colon is over 45 µM; in the assay on NCI-H23 lung it was 4.65 µM and > 45 µM; in the assay with SR leukemia it was 4.65 µM and 20.3 µM; in the assay on OVCAR-3 ovarian, 18 µM; with CCRF-CEM leukemia, over 45 µM; in the assay with U251 CNS, 4.65 µM and > 45 µM. For the same compound, the TGI is 4.65 µM and 7.18 µM in the assay on NCI-H226 lung; 4.65 µM and > 45 µM with SN12C renal; 4.65 µM and > 45 µM with HOP-62 NSCLC.

Take `CCN(CC)CCC(=O)NC1c2ccc(Cl)cc2Oc2c(C)cccc21` (stereo not given): the TGI with HCC-2998 colon came to 39 µM; with NCI-H23 lung it was 31.5 µM; with SR leukemia, 39.1 µM; with OVCAR-3 ovarian, 28.8 µM; in the assay on CCRF-CEM leukemia, 37 µM; in the assay with SN12C renal, 35.5 µM.

For `COc1ccc([N+]2=NC(c3ccc([N+](=O)[O-])cc3)=NN(c3ccccc3)C2)cc1`, the TGI in the assay with HCC-2998 colon was over 100 µM; with NCI-H23 lung it was over 100 µM; with SR leukemia it was over 100 µM; with OVCAR-3 ovarian it was over 100 µM; in the assay with CCRF-CEM leukemia, 92.8 µM and 52.1 µM; in the assay with U251 CNS, over 100 µM. For the same compound, the TGI with NCI-H226 lung, in the assay with SN12C renal and with HOP-62 NSCLC was over 100 µM throughout.

In the case of `CCCCc1c2c(nc3c1CCC/C3=C\c1ccccc1)C(=O)CCC2`, the TGI in the assay with HCC-2998 colon is 35.2 µM; in the assay with NCI-H23 lung it was 58.7 µM; with SR leukemia, 36.6 µM; in the assay on OVCAR-3 ovarian, 33.4 µM; in the assay with CCRF-CEM leukemia, 61.7 µM; in the assay with U251 CNS it was 34 µM. Further, the TGI in the assay on NCI-H226 lung was 45.3 µM; with SN12C renal, 47.4 µM; with HOP-62 NSCLC it was 42 µM.

For the compound `O=c1c2c(nc3n1CCS3)[nH]c1ccccc12`, the GI50 is over 100 µM in the assay on HCC-2998 colon; over 100 µM in the assay with NCI-H23 lung; 95.4 µM with OVCAR-3 ovarian; over 100 µM with CCRF-CEM leukemia; over 100 µM in the assay on U251 CNS; 70.3 µM in the assay on NCI-H226 lung. In addition, the GI50 is 76.8 µM in the assay with CAKI-1 renal, over 100 µM in the assay on SN12C renal and over 100 µM in the assay with HOP-62 NSCLC. For the same compound, the TGI in the assay on HCC-2998 colon, in the assay with NCI-H23 lung, with OVCAR-3 ovarian, in the assay on CCRF-CEM leukemia, with U251 CNS and in the assay on NCI-H226 lung was over 100 µM each time. Also, the TGI with CAKI-1 renal, with SN12C renal and in the assay with HOP-62 NSCLC was over 100 µM each time.
